US7452691B2, “Device and method for detecting antibiotic inactivating enzymes” (priority 2005, dated 2008)
Values after ≈ are worked out from the molar mass of the structure shown. Like-named read-outs stand apart in the source and are kept apart here.

Legend:
L-1 = L-1 (Stenotrophomonas maltophilia, UniProt P52700); test: Indirect reagent disk test, antibiotic inactivation; type: cell-based; conditions: enzyme L-1; indirect method; note: key: P, positive; N, negative; WP, weak positive (slight flattening); ?, results were questionable
Sequence of L-1 (P52700 34-290): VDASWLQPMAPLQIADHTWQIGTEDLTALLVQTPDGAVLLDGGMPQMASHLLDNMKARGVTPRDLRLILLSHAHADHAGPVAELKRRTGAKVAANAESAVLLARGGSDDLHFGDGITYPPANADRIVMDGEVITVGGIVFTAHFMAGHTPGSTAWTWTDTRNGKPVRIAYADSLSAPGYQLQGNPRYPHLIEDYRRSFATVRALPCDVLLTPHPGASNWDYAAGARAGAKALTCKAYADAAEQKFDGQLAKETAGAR
Excerpt: (§1) • 1. […] Performing and Interpreting the Test • 1.

FOX-1 = test: as above; type: cell-based; conditions: enzyme FOX-1; indirect method
Excerpt: (§3) A solution of equal parts of physiological saline and Tris EDTA (Sigma Chemicals) is made. • 2. A 20 microliter aliquot of the permeabilizing agent solution was placed onto a filter paper disk and allowed to dry. […] The filter paper disk impregnated with the permeabilizing agent was rehydrated with 20 microliters of sterile physiological saline. • 2. Using a cotton swab or loop, a test organism was rubbed onto the rehydrated disk. • 3. A Mueller Hinton Agar plate was inoculated with a 0.5 McFarland of E. coli ATCC 25922. • 4. A cefoxitin disk was placed onto the surface of the agar plate. The rehydrated disk inoculated with the test organism next was placed next to the cefoxitin disk, at a distance of about 0.5-1.0 mm. • 5. The agar plate was incubated at 37° C. for about 16 hours, or overnight. • 6. Distortion of the cefoxitin zone was interpreted as a positive result (i.e., the presence of an antibiotic-inactivating factor was detected), whereas lack of distortion of the cefoxitin zone was interpreted as a negative result.
(§4) The indirect method was performed essentially as described in Example 4, except the antibiotic disks were as indicated. An indentation of a zone of inhibition around the antibiotic dish was interpreted as positive for presence of antibiotic-inactivating factor.

OXA-2 = OXA-2 (Escherichia coli, UniProt P0A1V9); test: as above; type: cell-based; conditions: enzyme OXA-2; indirect method
Sequence of OXA-2 (P0A1V9 22-275): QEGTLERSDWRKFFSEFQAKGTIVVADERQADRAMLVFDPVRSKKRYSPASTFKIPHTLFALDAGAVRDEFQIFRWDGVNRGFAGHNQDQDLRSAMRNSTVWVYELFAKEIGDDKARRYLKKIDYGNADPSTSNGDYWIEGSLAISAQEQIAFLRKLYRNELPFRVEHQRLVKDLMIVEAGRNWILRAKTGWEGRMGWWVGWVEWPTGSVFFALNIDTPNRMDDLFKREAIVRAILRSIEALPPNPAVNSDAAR
Protocol: as §4

OXA-4 = test: as above; type: cell-based; conditions: enzyme OXA-4; indirect method
Protocol: as §4

OXA-3 = OXA-3 (Pseudomonas aeruginosa, UniProt Q51429); test: as above; type: cell-based; conditions: enzyme OXA-3; indirect method
Sequence of OXA-3 (Q51429 22-275): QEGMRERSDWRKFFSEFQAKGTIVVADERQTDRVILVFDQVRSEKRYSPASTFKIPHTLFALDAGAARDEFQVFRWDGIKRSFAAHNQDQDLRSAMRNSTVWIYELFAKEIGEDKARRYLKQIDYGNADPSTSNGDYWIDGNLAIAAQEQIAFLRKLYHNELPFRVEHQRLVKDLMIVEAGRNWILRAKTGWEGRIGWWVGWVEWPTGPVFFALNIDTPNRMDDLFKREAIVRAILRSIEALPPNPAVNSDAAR
Excerpt: as §3, §4

SHV-1 = SHV-1 (Klebsiella pneumoniae, UniProt P0AD64); test: as above; type: cell-based; conditions: enzyme SHV-1; indirect method
Sequence of SHV-1 (P0AD64 22-286): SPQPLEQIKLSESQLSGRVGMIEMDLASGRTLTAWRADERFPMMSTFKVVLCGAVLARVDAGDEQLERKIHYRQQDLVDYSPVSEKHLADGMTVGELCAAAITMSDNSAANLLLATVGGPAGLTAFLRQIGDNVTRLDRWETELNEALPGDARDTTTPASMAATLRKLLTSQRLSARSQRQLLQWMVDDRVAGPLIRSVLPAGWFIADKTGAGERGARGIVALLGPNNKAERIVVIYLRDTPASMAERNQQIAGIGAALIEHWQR
Excerpt: as §3, §4

E. coli V1104 = test: Spectrophotometric hydrolysis assay of β-lactamase released by permeabilizing agent, nitrocefin as substrate; type: cell-based
Protocol: (§2) H., et al., A.A.C. 1:283-288 (1972). […] The nitrocefin was prewarmed to 37° C.
The experiment in Example 1 was repeated using E. coli V1104 to evaluate a variety of permeabilizing agents. Nitrocefan was the hydrolysis substrate.

OXA-6 = test: Indirect reagent disk test, antibiotic inactivation; type: cell-based; conditions: enzyme OXA-6; indirect method
Protocol: as §4

AmpC = conditions: enzyme AmpC; indirect method
Excerpt: as §3
(§5) An indentation of a zone of inhibition around the antibiotic dish was interpreted as positive for presence of antibiotic-inactivating factor.

ACT-1 = test: Indirect reagent disk test, antibiotic inactivation; type: cell-based; conditions: enzyme ACT-1; indirect method
Excerpt: as §3, §5

OXA-5 = OXA-5 (Pseudomonas aeruginosa, UniProt Q00982); test: as above; type: cell-based; conditions: enzyme OXA-5; indirect method
Sequence of OXA-5 (Q00982 20-267): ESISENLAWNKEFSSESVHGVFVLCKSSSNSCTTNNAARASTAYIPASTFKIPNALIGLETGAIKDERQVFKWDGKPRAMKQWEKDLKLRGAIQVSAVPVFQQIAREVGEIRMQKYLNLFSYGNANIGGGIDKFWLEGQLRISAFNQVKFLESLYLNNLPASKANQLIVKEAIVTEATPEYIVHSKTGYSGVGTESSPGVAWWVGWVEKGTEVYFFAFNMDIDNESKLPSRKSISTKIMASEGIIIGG

LAT-1 = test: as above; type: cell-based; conditions: enzyme LAT-1; indirect method; note: key: P, positive; N, negative; WP, weak positive (slight flattening); ?, results were questionable
Excerpt: as §1

PSE-1 = PSE-1 (Pseudomonas aeruginosa, UniProt Q03170); test: as above; type: cell-based; conditions: enzyme PSE-1; indirect method
Sequence of PSE-1 (Q03170 18-288): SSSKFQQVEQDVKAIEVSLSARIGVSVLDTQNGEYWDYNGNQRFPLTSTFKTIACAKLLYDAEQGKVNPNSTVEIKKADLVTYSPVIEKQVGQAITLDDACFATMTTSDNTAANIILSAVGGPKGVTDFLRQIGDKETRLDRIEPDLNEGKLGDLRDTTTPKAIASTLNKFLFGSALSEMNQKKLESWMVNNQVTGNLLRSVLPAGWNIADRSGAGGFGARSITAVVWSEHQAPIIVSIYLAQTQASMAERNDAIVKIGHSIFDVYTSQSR
Excerpt: as §1

TEM-46 = type: cell-based; conditions: enzyme TEM-46; indirect method
Protocol: as §4

OXA-7 = OXA-7 (Escherichia coli, UniProt P35695); test: Indirect reagent disk test, antibiotic inactivation; type: cell-based; conditions: enzyme OXA-7; indirect method
Sequence of OXA-7 (P35695 21-266): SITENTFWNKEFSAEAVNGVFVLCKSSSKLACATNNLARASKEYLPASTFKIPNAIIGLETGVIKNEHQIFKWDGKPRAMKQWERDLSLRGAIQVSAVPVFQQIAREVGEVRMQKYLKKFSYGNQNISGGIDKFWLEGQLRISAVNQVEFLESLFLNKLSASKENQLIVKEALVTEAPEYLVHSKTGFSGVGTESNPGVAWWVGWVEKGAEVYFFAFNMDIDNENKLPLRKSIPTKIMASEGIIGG
Excerpt: as §3, §5

Class A Carbapenemases = test: Indirect TE disk test for detection of Class A Carbapenemases; type: cell-based; conditions: for CACs detected by indirect TE disk test: 21 CAC-producing strains, E. coli ATCC 25922 lawn; for False positive results in indirect TE disk test: strains producing non-CAC enzymes (metallo/OXA carbapenemases, AmpC, ESBLs)
Protocol: Methods: 21 strains that produced Class A Carbapenemases (“CACs”) comprising 12 Klebsiella pneumoniae, 5 Enterobacter cloacae, 2 Escherichia coli, and 2 Serratia marcescens; 10 strains of Acinetobacter baumannii, Pseudomonas aeruginosa, and S. marcescens that produced either a metallo-beta-lactamase or an OXA carbapenemases, and 11 strains of Enterobacteriaceae that produced either AmpC β-lactamases or ESBLs were investigated. The test was performed essentially as described in Example 5, with any changes noted below. The indirect test involved inoculation of the surface of a Mueller-Hinton (MH) agar plate with a lawn of E. coli ATCC 25922, not the test organism. Immediately prior to incubation, a premoistened TE disk was inoculated with several colonies of the test organism and placed face down on the MH agar adjacent to a disk containing one of the carbapenems, imipenem (IPM), meropenem (MER), or ertapenem (ERT). After overnight incubation, an indentation of the zone inhibition was interpreted as positive.

SHV-4 = SHV-4 (Klebsiella pneumoniae, UniProt P37323); test: Indirect reagent disk test, antibiotic inactivation; type: cell-based; conditions: enzyme SHV-4; indirect method
Sequence of SHV-4 (P37323 whole entry): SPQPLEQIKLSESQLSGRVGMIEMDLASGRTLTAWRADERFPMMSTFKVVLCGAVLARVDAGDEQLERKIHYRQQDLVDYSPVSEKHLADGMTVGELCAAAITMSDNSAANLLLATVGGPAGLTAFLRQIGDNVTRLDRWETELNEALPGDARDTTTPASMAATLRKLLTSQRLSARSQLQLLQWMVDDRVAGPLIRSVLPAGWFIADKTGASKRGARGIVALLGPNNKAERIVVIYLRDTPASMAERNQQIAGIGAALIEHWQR
Excerpt: as §3, §4

Klebsiella spp. isolates = test: Antimicrobial susceptibility by NCCLS microdilution (MIC); type: cell-based
Protocol: Thirty recent isolates of Klebsiella spp. were collected from patients in United States hospitals.
Antimicrobial susceptibility was determined by NCCLS microdilution methodology using an investigational Microscan dehydrated panel.

SHV-2 = SHV-2 (Escherichia coli, UniProt P0A9Z7); test: Indirect reagent disk test, antibiotic inactivation; type: cell-based; conditions: enzyme SHV-2; indirect method
Sequence of SHV-2 (P0A9Z7 22-286): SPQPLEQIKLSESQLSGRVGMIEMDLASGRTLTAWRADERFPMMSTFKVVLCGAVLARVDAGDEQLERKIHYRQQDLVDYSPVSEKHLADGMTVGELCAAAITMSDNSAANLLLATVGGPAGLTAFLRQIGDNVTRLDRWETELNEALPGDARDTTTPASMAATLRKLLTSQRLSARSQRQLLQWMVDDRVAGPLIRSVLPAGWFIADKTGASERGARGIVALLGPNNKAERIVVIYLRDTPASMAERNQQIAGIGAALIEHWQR
Excerpt: as §3, §4

[1] = system: E. coli MISC 208 (which produces the extended spectrum β-lactamase SHV-2); conditions: 0° C.
Protocol: In this Example, E. coli MISC 208 (which produces the extended spectrum β-lactamase SHV-2) was used as a test organism and nitrocefin was the substrate in spectrophotometric hydrolysis assays. The E. coli strain was harvested directly into 100 microliters of Mueller Hinton Broth and mixed with 100 microliters of the permeabilizing agent.
In the hydrolysis assay, units of activity are calculated as:
Briefly, a 100 μM solution of nitrocefin was used as a substrate. The nitrocefin was prewarmed to 37° C. The hydrolysis assay was performed at 37° C. at a wavelength of 389.5 with an extinction coefficient of −0.024. An appropriate cuvette was filled with 0.9 ml of the prewarmed nitrocefin substrate and 100 ul of permeabilized bacterial suspension was added. The contents of the cuvette were immediately mixed by inversion and the cuvette was placed in a spectrophotometer. Absorbance was assayed at 5-second intervals for up to 5 minutes with the 37° C. temperature maintained by means of a circulating water bath that warmed the cuvette block. When the assay was complete, the activity was calculated according to the above formula.

[2] = system: β-lactamases of Klebsiella isolates (AmpC); test: Isoelectric focusing with inhibitor overlays; type: biochemical, Klebsiella spp.; conditions: nine of ten positive Klebsiella isolates; 1000 μM overlay
Protocol: Crude sonicates were subjected to analytical isoelectric focusing (IEF) on an ampholine polyacrylamide gel (pH range 3.5-9.5) on a flatbed apparatus (Multiphor LKB). Inhibitor overlays of the IEF gel were performed with 1000 μM clavulanic acid and cloxacillin.

E. coli MISC 208 = test: Spectrophotometric hydrolysis assay of β-lactamase released by permeabilizing agent, cefaclor as substrate; type: cell-based
Protocol: as §2
The experiment in Example 1 was repeated using E. coli MISC 208 and cefaclor as substrate in the hydrolysis assays.

| Compound | Reagent disk test result (indentation of inhibition zone = antibiotic inactivation) (L-1) | Reagent disk test result (indentation of inhibition zone = antibiotic inactivation) (OXA-2) | Reagent disk test result (indentation of inhibition zone = antibiotic inactivation) (OXA-4) | Reagent disk test result (indentation of inhibition zone = antibiotic inactivation) (OXA-3) | Reagent disk test result (indentation of inhibition zone = antibiotic inactivation) (OXA-6) | Reagent disk test result (indentation of inhibition zone = antibiotic inactivation) (OXA-5) | Reagent disk test result (indentation of inhibition zone = antibiotic inactivation) (PSE-1) | Reagent disk test result (indentation of inhibition zone = antibiotic inactivation) (TEM-46) | further results |
| --- | --- | --- | --- | --- | --- | --- | --- | --- | --- |
| CC1(C)S[C@@H]2[C@H](NC(=O)[C@H](N)c3ccccc3)C(=O)N2[C@H]1C(=O)O [AM, ampicillin] | N | – | – | – | – | – | – | – | – |
| C[C@H]1[C@H](NC(=O)/C(=N\OC(C)(C)C(=O)O)c2csc(N)n2)C(=O)N1S(=O)(=O)O [Aztreonam, aztreonam] | N | N | N | N | N | N | N | – | Reagent disk test result (indentation of inhibition zone = antibiotic inactivation) (FOX-1): N; Reagent disk test result (indentation of inhibition zone = antibiotic inactivation) (SHV-1): N; Units of β-lactamase Activity (Nitrocefin as substrate) (E. coli V1104): 210; Reagent disk test result (indentation of inhibition zone = antibiotic inactivation) (AmpC): N; Reagent disk test result (indentation of inhibition zone = antibiotic inactivation) (ACT-1): N; Reagent disk test result (indentation of inhibition zone = antibiotic inactivation) (LAT-1): N |
| CO[C@@]1(NC(=O)CSCC#N)C(=O)N2C(C(=O)O)=C(CSc3nnnn3C)CS[C@@H]21 [CMZ, cefmetazole] | – | – | – | – | – | – | P^m | N | – |
| CO/N=C(\C(=O)N[C@@H]1C(=O)N2C(C(=O)O)=C(CSc3nc(=O)c(O)nn3C)CS[C@H]12)c1csc(N)n1 [CRO, ceftriaxone] | N | N | N | N | – | N | N | – | – |
| CO/N=C(\C(=O)N[C@@H]1C(=O)N2C(C(=O)O)=C(COC(C)=O)CS[C@H]12)c1csc(N)n1 [CTX, cefotaxime] | N | N | – | N | WP? | N | N | N | – |
| CC(C)(O/N=C(\C(=O)N[C@@H]1C(=O)N2C(C(=O)[O-])=C(C[n+]3ccccc3)CS[C@H]12)c1csc(N)n1)C(=O)O [Ceftazidime, ceftazidime] | N | N | N | N | N | N | N | – | Reagent disk test result (indentation of inhibition zone = antibiotic inactivation) (FOX-1): N; Reagent disk test result (indentation of inhibition zone = antibiotic inactivation) (SHV-1): N; Units of β-lactamase Activity (Nitrocefin as substrate) (E. coli V1104): 196; Reagent disk test result (indentation of inhibition zone = antibiotic inactivation) (OXA-7): N |
| C[C@@H](O)[C@H]1C(=O)N2C(C(=O)O)=C(S[C@@H]3CN[C@H](C(=O)Nc4cccc(C(=O)O)c4)C3)[C@H](C)[C@H]12 [ERT, ertapenem] | – | – | – | – | – | – | – | – | CACs detected by indirect TE disk test (Class A Carbapenemases): all; False positive results in indirect TE disk test (Class A Carbapenemases): no false positive results |
| CO[C@@]1(NC(=O)Cc2cccs2)C(=O)N2C(C(=O)O)=C(COC(N)=O)CS[C@@H]21 [FOX, cefoxitin] | N | – | N | – | N | N | N^n | N | Reagent disk test result (indentation of inhibition zone = antibiotic inactivation) (SHV-1): N; Reagent disk test result (indentation of inhibition zone = antibiotic inactivation) (SHV-4): N; MIC (Klebsiella spp. isolates; thirty Klebsiella spp. isolates): ≥ 16 µg/mL; MIC (Klebsiella spp. isolates; thirty isolates of Klebsiella spp., read-out: MIC): ≥ 16 µg/mL; Reagent disk test result (indentation of inhibition zone = antibiotic inactivation) (SHV-2): N |
| C[C@@H](O)[C@H]1C(=O)N2C(C(=O)O)=C(SCCN=CN)C[C@H]12 [IPM, imipenem] | – | – | N | – | N | – | – | N | Reagent disk test result (indentation of inhibition zone = antibiotic inactivation) (FOX-1): N; MIC (Klebsiella spp. isolates; the one positive Klebsiella isolate producing a carbapenem-hydrolyzing enzyme, read-out: MIC): 64 µg/mL (≈ 214 µM) |
| C[C@@H](O)[C@H]1C(=O)N2C(C(=O)O)=C(S[C@@H]3CN[C@H](C(=O)N(C)C)C3)[C@H](C)[C@H]12 [MEM, meropenem] | N | WP? | N | N | N | N | – | N | Reagent disk test result (indentation of inhibition zone = antibiotic inactivation) (FOX-1): N; Reagent disk test result (indentation of inhibition zone = antibiotic inactivation) (SHV-1): N; Reagent disk test result (indentation of inhibition zone = antibiotic inactivation) (SHV-4): N; Reagent disk test result (indentation of inhibition zone = antibiotic inactivation) (SHV-2): N; CACs detected by indirect TE disk test (Class A Carbapenemases): 19/21; False positive results in indirect TE disk test (Class A Carbapenemases): no false positive results; Reagent disk test result (indentation of inhibition zone = antibiotic inactivation) (LAT-1): N |
| CCN1CCN(C(=O)N[C@@H](C(=O)N[C@@H]2C(=O)N3[C@@H]2SC(C)(C)[C@@H]3C(=O)O)c2ccccc2)C(=O)C1=O [Piperacillin] | – | – | – | – | – | – | – | – | Units of β-lactamase Activity (Nitrocefin as substrate) (E. coli V1104): 202 |
| NC(CO)(CO)CO [Tris] | – | – | – | – | – | – | – | – | Units of β-lactamase Activity (Nitrocefin as substrate) [1]: 41 |
| Cc1onc(-c2ccccc2Cl)c1C(=O)N[C@@H]1C(=O)N2[C@@H]1SC(C)(C)[C@@H]2C(=O)O [cloxacillin] | – | – | – | – | – | – | – | – | Inhibition of β-lactamases (pIs 7.2, 7.7 or ≧9.0) in IEF inhibitor overlay [2]: inhibited |
| Polymyxin B | – | – | – | – | – | – | – | – | Units of β-lactamase Activity (Cefaclor as substrate) (E. coli MISC 208; agent 10 μg/ml): 3.8; Units of β-lactamase Activity (Cefaclor as substrate) (E. coli MISC 208; agent 30 μg/ml): 15 |
| benzalkonium chloride | – | – | – | – | – | – | – | – | Units of β-lactamase Activity (Cefaclor as substrate) (E. coli MISC 208; agent 200 μg/ml): 16 |
